The source of these data is patent US12171813B2, “Methods of and compositions for reducing gene expression and/or activity” (Christiana Care Gene Editing Institute, Inc., priority 2021, dated 2024).

For the first data set, the system named is NFE2L2 gene. As to the kind of experiment: Screening of SureKill guide RNAs in the NFE2L2 gene for ability to induce indels. The class given is cell-based, Human. Particulars: transfections of individual guide RNAs (spCas9 RNP); NCI-H1703 clone 44-25 cells; DECODR. How it is done:
(§1) Human lung squamous cell carcinoma NCI-H1703 clone 44-25 cells were derived from NCI-H1703 cells (#CRL-5889) which were purchased from ATCC (Manassas, VA, USA). NCI-H1703 clone 44-25 cells contains R34G mutation (C 4 G) in NFE2L2 gene. H1703 clone 44-25 cells were cultured in ATCC formulation RPMI-1640 with 10% FBS. T75 flasks were used and cells were split 1:5 upon reaching 90% confluency. Human lung adenocarcinoma cells (Dist. Lot. No. LG0703-F948-PDC) were acquired from the National Institute of Health's National Cancer Institute's Patient-Derived Models Repository (PDMR). This PDMR cell line contains the L858R mutation (T 4 G) in the EGFR gene. The PDMR cells were maintained in Advanced DMEM/F12 media containing 10% FBS, 0.4 μg/mL hydrocortisone, 0.01 μg/mL EGF Recombinant Human Protein, 24 μg/mL adenine, and 2 mM L-Glutamine. T75s were used and cells were split 1:3 upon reaching 90% confluency. All cultures were maintained in cell culture incubators at 37° C. and 5% CO2.
(§2) Ribonucleoproteins (RNP) are complexed by incubating 250 pmol of purified synthetic gRNA (Synthego Corporation, Redwood City, CA) with 50 pmol of purified spCas9 (Synthego Corporation, Redwood City, CA) at room temperature in nuclease-free 1× TE buffer for 15 minutes.
(§3) Transfections were carried out using the Lonza Nuclefector 4d. Cultures in t75s at 90% confluence were split 1:2 24 hours prior to transfection. RNPs were complexed at 250:50 pmol for 30 minutes prior to transfection, during which time cells were harvested and counted. All reactions were 100 μL and contained 1 e6 cells. Lonza SF solution and Nucleofector program CM-130 were used in all transfections of the H1703 cell line. Lonza SE solution and Nucleofector program CA-137 were used in all transfections of the PDMR. After transfection, 500 μL of media that had been equilibrated to cell culture CO2 and temperature conditions was added to each 100 μL cuvettes. Cuvettes were then placed in the incubator. After 20 minutes, the entire content of each cuvette was seeded into 3 mL of media in a 6 well plate. After 72 hours, samples were dissociated using 200 μL Trypsin 0.25% for 5 minutes. 800 μL culture media was used to quench and split into 1.5 mL tubes each containing 500 μL of the sample. Tubes were spun at 300×g for 5 minutes. One of the tubes was placed in the −20° C. freezer and the other was resuspended in 500 μL of Trizol for RNA extraction and cDNA synthesis.
(§4) All sequencing was performed on the Applied Biosystems SeqStudio. The BigDye Terminator v3.1 Cycle Sequencing Kit was used to prepare samples for sequencing. Resulting sequences were analyzed with DECODR to determine indel rates (Bloh et al., CRISPR J. 4:120-31 (2021)).
In some cancers, human NRF2 contains a mutation, R34G, that creates a novel PAM site making it a targetable sequence by CRISPR. By combining the R34G-targeting CRISPR with another CRISPR of high efficiency in a downstream intronic region, exon skipping can be induced, resulting in a higher efficiency of functional knockout than the R34G targeting CRISPR alone. To find a suitable SureKill guide RNA (gRNA) to pair with the R34G targeting CRISPR, we selected the intron between exons 3 and 4 (FIG. 2). A series of gRNAs were created in this region and screened for their ability to induce indels, a measure of their activity (Table 2).
In Table 2, all sequences are listed from 5′ to 3′. Indel %, a measure of CRISPR activity, is based on transfections of individual guide RNAs. All guide RNAs, with the exception of R34G, were designed in the intron between exons 3 and 4.
Substance “NRF2 3-4 SureKill gRNA 10: NRF2 intron 3-4 guide RNA GGTTTTGTATTGTGTGAA, SEQ ID NO:15 (listed as DNA, chemistry not given here)” came in with an indel % of 32.2%.

“NRF2 3-4 SureKill gRNA 26: NRF2 intron 3-4 guide RNA GCTTACTCATCCCCTGTTGG, SEQ ID NO:28 (listed as DNA, chemistry not given here)”: the indel % worked out at 89.65%.

Turning to “NRF2 3-4 SureKill gRNA 29a: NRF2 intron 3-4 guide RNA GATTCCATTTTGTTTTGTAG, SEQ ID NO:30 (listed as DNA, chemistry not given here)”, the indel % came out at 11.85%.

“NRF2 3-4 SureKill gRNA 29b: NRF2 intron 3-4 guide RNA GATTTATGAGTCTTCCACCAAC, SEQ ID NO:31 (listed as DNA, chemistry not given here)” came in with an indel % of 11.8%.

The substance “NRF2 3-4 SureKill gRNA 31: NRF2 intron 3-4 guide RNA GTTTGGTGAGTAAAGAGCCAGC, SEQ ID NO:33 (listed as DNA, chemistry not given here)” had an indel % of 14.55%.

Take “NRF2 3-4 SureKill gRNA 32: NRF2 intron 3-4 guide RNA GGTTATGCTGTCCATGTTTC, SEQ ID NO:34 (listed as DNA, chemistry not given here)”: the indel % is reported as 47.8%.

The subject of another data set is NRF2. As to the kind of experiment: cDNA PCR analysis of exon skipping / full-size transcript in NFE2L2. The class given is cell-based, Human. The settings on record: gRNA individually applied in the CRISPR reaction; NCI-H1703 clone 44-25 cells. As for the experimental part: After CRISPR reactions, total RNA was prepared, and cDNA synthesized for PCR amplification of the target region from NRF2. PCR-amplified DNA was then analyzed by electrophoresis through a 1% agarose gel for 75 minutes at 80v. DNA was stained with SYBR Safe. Lanes 1 and 10: NEB 2 Log Ladder; Lane 2: Scrambled gRNA; Lane 3: NRF2 3-4 SureKill gRNA 3 alone; Lane 4: NRF2 3-4 SureKill gRNA 12 alone; Lane 5: NRF2 3-4 SureKill gRNA 14 alone; Lane 6: NRF2 3-4 SureKill gRNA 15 alone; Lane 7: NRF2 3-4 SureKill gRNA 21 alone; Lane 8: NRF2 3-4 SureKill gRNA 25 alone; Lane 9: NRF2 3-4 SureKill gRNA 26 alone. On the left side of the image are markers indicating DNA size in bp.
After CRISPR reactions, total RNA was prepared, and cDNA synthesized for PCR amplification of the target region from NRF2. PCR-amplified DNA was then analyzed by electrophoresis through a 1% agarose gel for 75 minutes at 80v. DNA was stained with SYBR Safe. Lane 1: NEB 2 Log Ladder; Lane 2: Scrambled gRNA; Lane 3: R34G gRNA alone; Lane 4: NRF2 3-4 SureKill gRNA 3+R34G gRNA; Lane 5: NRF2 3-4 SureKill gRNA+R34G gRNA; Lane 6: NRF2 3-4 SureKill gRNA 14+R34G gRNA. […]
Transfections were carried out using the Lonza Nuclefector 4d. […] RNPs were complexed at 250:50 pmol for 30 minutes prior to transfection, during which time cells were harvested and counted. […]
Regarding “NRF2 3-4 SureKill gRNA 26: NRF2 intron 3-4 guide RNA GCTTACTCATCCCCTGTTGG, SEQ ID NO:28 (listed as DNA, chemistry not given here)”, the “exon skipping (cDNA analysis)” value is “some level of exon skipping”.

Another data set concerns EGFR gene. In words: Screening of SureKill guide RNAs in the EGFR gene for ability to induce indels. The settings on record: transfections of individual guide RNAs (spCas9 RNP); PDMR human lung adenocarcinoma cells with EGFR L858R; DECODR. The format is cell-based. How it is done:
as §1, §2, §3, §4
Human EGFR is a frequently mutated gene that is associated with cancers. One of the most common mutations is L858R which results in the creation of a novel PAM site, making it a targetable sequence by CRISPR. Like the R34G mutation, the CRISPR designed to target the L858R mutation is not highly efficient on its own. By combining the L858R-targeting CRISPR with another CRISPR of high efficiency in a downstream intronic region, exon skipping can be induced, resulting in a higher efficiency of functional knockout than the L858R targeting CRISPR alone. To find a suitable gRNA to pair with the L858R targeting CRISPR, we selected the intron between exons 21 and 22 (FIG. 6). A series of gRNAs were created in this region and screened for their ability to induce indels, a measure of their activity using DECODR (Bloh et al., CRISPR J. 4:120-31 (2021)) (Table 3).
In Table 3, all sequences are listed from 5′ to 3′. Indel percent, a measure of CRISPR activity, is based on transfections of individual guide RNAs. All guide RNAs, with the exception of L858R, were designed in the intron between exons 21 and 22.
For “EGFR 21-22 SureKill gRNA 2: EGFR intron 21-22 guide RNA GTATTGTTTAACACATGCAG, SEQ ID NO:10 (listed as DNA, chemistry not given here)”, the indel % turned out to be 2%.

In turn, “EGFR 21-22 SureKill gRNA 10A: EGFR intron 21-22 guide RNA GTTTAACACATGCAGGGG, SEQ ID NO:35 (listed as DNA, chemistry not given here)” yielded an indel % of 0%.

On to “EGFR 21-22 SureKill gRNA 10B: EGFR intron 21-22 guide RNA GTATTGTTTAACACATGCAGGGG, SEQ ID NO:36 (listed as DNA, chemistry not given here)”, for which the indel % came to 0%.

As for “EGFR 21-22 SureKill gRNA 23: EGFR intron 21-22 guide RNA GCATTTTCCTGACACCAGGGACC, SEQ ID NO:47 (listed as DNA, chemistry not given here)”, the indel % came to 96.15%.

For “EGFR 21-22 SureKill gRNA 29: EGFR intron 21-22 guide RNA GTTAAACAATACAGCTAGT, SEQ ID NO:52 (listed as DNA, chemistry not given here)”, the indel % was determined as 100%.
